Test results: patent publication US7541020B2, “Aminoalkyl glucosaminide phosphate compounds and their use as adjuvants and immunoeffectors” (priority 1997, dated 2009)
Several values for one entry are separate records, joined by “and”; a condition that tells them apart may be missing. Identical values can stand only once. Like-named read-outs stand apart in the source and are kept apart here.

Legend:
[1] = tested on: influenza A/HK/68; conditions: mouse, in vivo
[2] = tested on: tetanus toxoid; conditions: mouse, in vivo, sc
[3] = tested on: ovalbumin; assay: Stimulation of antiovalbumin antibody production; format: in vivo, BDF1 female mice; conditions: 50 μg AGP + 50 μg ovalbumin; second immunization day 21; bled 14 days after second injection
Protocol: BDF1 female mice (8 per group) were immunized with 0.2 ml of emulsions containing 50 μg of the AGPs +50 μg of ovalbumin. A second immunization was administered 21 days post primary. Each mouse was bled 14 days after the second injection.

[4] = tested on: influenza A/HK/68; format: in vivo, ICR mice
[5] = tested on: TNF-α; assay: Cytokine induction in human whole blood ex vivo culture: TNF-α (ELISA); format: cell-based; conditions: 4 hr
Protocol: (§1) AGP compounds were solubilized in 10% EtOH-water and diluted to various concentrations. Fifty μl of each dilution were added to 450 μl of whole human blood. Controls were treated with culture media (RPMI). The reaction mixture was incubated at 37° C. for 4 hr with constant mixing on a rotator. Sterile PBS (1.5 ml) was added to the reaction mixture, the cells were centrifuged and the supernatents removed for cytokine testing. The concentration of TNF-α and IL-1β in each supernatent was determined using immunoassay ELISA kits from R&D Systems.

[6] = tested on: E.G7 (OVA) cells; conditions: s.c. 25 μg OVA in AGP preparation, spleen cells 21 days later
[7] = tested on: tetanus toxoid; design: species or system BFD1 (C57B1/6X DBA/2) female mice; conditions: mouse, in vivo
[8] = tested on: IL-1β; assay: Cytokine induction in human whole blood ex vivo culture: IL-1β (ELISA); format: cell-based; conditions: 4 hr
Protocol: as §1

[9] = Fever response in rabbits (pyrogenicity); format: in vivo
Protocol: The AGP compounds were also evaluated for their tendency to induce a fever response in rabbits. Each compound was formulated in 10% (v/v) ethanol/water solution at 100 mg/ml, then diluted with D5W to the desired concentration. The material was injected at 3 ml/kg body weight into 3 rabbits. The rise in core temperature of the rabbits was recorded.

[10] = 25 μg AGP + 1 HAU FI-Flu in 0.2% TEoA, once, bled day 14, Table 11

3-[(R)-3-Tetradecanoyloxytetradecanoylamino]propyl 2-Deoxy-4-O-phosphono-3-O-[(R)-3-tetradecanoyoxytetradecanoyl]-2-[(R)-3-tetradecanoyloxytetradecanoylamino])-β-D-glucopyranoside Triethylammonium Salt [B21]
Percent Survival [1]: 40%
Titer−1 IgG1 [1]: 800
Titer−1 IgG2a [1]: 100
Titer−1 IgG2b [1]: 1600
Titer−1 Total IgG [1]: 6400
Anti-tetanus toxoid IgG1 T/C [2]: 2.23
Anti-tetanus toxoid IgG1 Titer [2]: 480,000
Anti-tetanus toxoid IgG2a T/C [2]: 5.83
Anti-tetanus toxoid IgG2a Titer [2]: 29,600
Anti-tetanus toxoid IgG2b T/C [2]: 6.07
Anti-tetanus toxoid IgG2b Titer [2]: 174,400
Anti-tetanus toxoid IgM T/C [2]: 5.50
Anti-tetanus toxoid IgM Titer [2]: 8,800
Anti-tetanus toxoid Total IgG T/C [2]: 4.71
Anti-tetanus toxoid Total IgG Titer [2]: 30,400
Anti-ovalbumin IgG1 T/C [3]: 0.6
Anti-ovalbumin IgG1 Titer [3]: 1000
Anti-ovalbumin IgG2a T/C [3]: 0.1
Anti-ovalbumin IgG2a Titer [3]: 25
Anti-ovalbumin IgG2b T/C [3]: 0.8
Anti-ovalbumin IgG2b Titer [3]: 200
Anti-ovalbumin IgM T/C [3]: 1.3
Anti-ovalbumin IgM Titer [3]: 250
Anti-ovalbumin Total Ig T/C [3]: 0.5
Anti-ovalbumin Total Ig Titer [3]: 113

CCCCCCCCCCCC(=O)O[C@H](CCCCCCCCCCC)CC(=O)N[C@H]1[C@H](OC[C@H](NC(=O)C[C@@H](CCCCCCCCCCC)OC(=O)CCCCCCCCCCC)C(=O)O)O[C@H](CO)[C@@H](OP(=O)(O)O)[C@@H]1OC(=O)C[C@@H](CCCCCCCCCCC)OC(=O)CCCCCCCCCCC.CCN(CC)CC [B12, N-[(R)-3-Dodecanoyloxytetradecanoyl]-o-[2-Deoxy-4-O-phosphono-2-[(R)-3-dodecanoyloxytetradecanoylamino]-3-O-[(R)-3-dodecanoyloxytetradecanoyl]-β-D-glucopyranosyl]-L-serine Triethylammonium Salt]
Titer^−1 IgG1 [4, 10]: 200
Titer^−1 IgG2a [4, 10]: 100
Titer^−1 IgG2b [4, 10]: 200
Titer^−1 Total IgG [4, 10]: 200
Percent Survival ([4]; […], mortality 21 days, Table 11): 0%
Anti-tetanus toxoid IgG2a T/C [2]: 139.4
Anti-tetanus toxoid IgG2a titer [2]: 2370
Anti-tetanus toxoid IgG2b T/C [2]: 149
Anti-tetanus toxoid IgG2b titer [2]: 9840
Anti-tetanus toxoid IgM T/C [2]: 3.1
Anti-tetanus toxoid IgM titer [2]: 4800
TNF-α ([5]; Dosage 1000 ng/ml, Table 19): 863 pg/mL
TNF-α ([5]; Dosage 5000 ng/ml, Table 19): 957 pg/mL
TNF-α ([5]; Dosage 10,000 ng/ml, Table 19): 1017 pg/mL
% Cytotoxicity ([6]; E:T 12.5:1): 4%
% Cytotoxicity ([6]; E:T 25:1): 7%
% Cytotoxicity ([6]; E:T 50:1): 13%
IgG1 T/C [7]: 90.08 and 141.22 and 145.21 and 81.12 and 84.11
IgG1 Titer [7]: 165,486 and 259,429 and 266,743 and 149,029 and 154,514
Total Ig T/C [7]: 326.02 and 368.55 and 403.98 and 248.06 and 489.92
Total Ig Titer [7]: 42,057 and 47,543 and 52,114 and 32,000 and 63,200
IL-1β ([8]; Dosage 1000 ng/ml, Table 19): 175 pg/mL
IL-1β ([8]; Dosage 5000 ng/ml, Table 19): 153 pg/mL
IL-1β ([8]; Dosage 10,000 ng/ml, Table 19): 135 pg/mL

CCCCCCCCCCCCCC(=O)O[C@H](CCCCCCCCCCC)CC(=O)N[C@H]1[C@H](OCCN(CC(=O)O)C(=O)C[C@@H](CCCCCCCCCCC)OC(=O)CCCCCCCCCCCCC)O[C@H](CO)[C@@H](OP(=O)(O)O)[C@@H]1OC(=O)C[C@@H](CCCCCCCCCCC)OC(=O)CCCCCCCCCCCCC.CCN(CC)CC [B27, N-(Carboxymethyl)-N-[(R)-3-tetradecanoyloxytetradecanoyl]-2-aminoethyl 2-Deoxy-4-O-phophono-2-[(R)-3-tetradecanoyloxytetradecanoylamino]-3-O-[(R)-3-tetradecanoyloxytetradecanoyl]-β-d-glucopyranoside Triethylammonium Salt]
Anti-ovalbumin IgG1 T/C [3]: 0.8
Anti-ovalbumin IgG1 Titer [3]: 1275
Anti-ovalbumin IgG2a T/C [3]: 0.1
Anti-ovalbumin IgG2a Titer [3]: 38
Anti-ovalbumin IgG2b T/C [3]: 0.5
Anti-ovalbumin IgG2b Titer [3]: 113
Anti-ovalbumin IgM T/C [3]: 1.6
Anti-ovalbumin IgM Titer [3]: 300
Anti-ovalbumin Total Ig T/C [3]: 0.6
Anti-ovalbumin Total Ig Titer [3]: 138
PYROGENICITY Total Rise ° C., 3 rabbits ([9]; 10 ug/kg, cumulative rise ≥1.5 degree in three rabbits is considered pyrogenic): 3.9 °C
% Cytotoxicity ([6]; E:T 12.5:1): 5%
% Cytotoxicity ([6]; E:T 25:1): 9%
% Cytotoxicity ([6]; E:T 50:1): 17%
IgG1 T/C Ratio [7]: 1.6
IgG1 Titer [7]: 10,400
IgG2a T/C Ratio [7]: 12.0
IgG2a Titer [7]: 900
IgG2b T/C Ratio [7]: 11.6
IgG2b Titer [7]: 9,000
IgM T/C Ratio [7]: 4.0
IgM Titer [7]: 11,200
Total Ig T/C Ratio [7]: 3.2
Total Ig Titer [7]: 6,800

N-[(R)-3-Tetradecanoyloxytetradecanoyl]-O-[2-Deoxy-4-O-phosphono-2-[(R)-3-tetradecanoyloxytetradecanoylamino]-3-O-[(R)-3-tetradecanoyloxytetradecanoyl]-β-D-glucopyranosyl]-L-serine Triethylammonium Salt [B11]
Percent Survival ([4]; mouse, in vivo): 30%
Titer^−1 IgG1 ([4]; mouse, in vivo): 200
Titer^−1 IgG2a ([4]; mouse, in vivo): 1600
Titer^−1 IgG2b ([4]; mouse, in vivo): 400
Titer^−1 Total IgG ([4]; mouse, in vivo): 1600
Anti-tetanus toxoid IgG1 T/C [2]: 1.86
Anti-tetanus toxoid IgG1 Titer [2]: 400,000
Anti-tetanus toxoid IgG2a Titer [2]: 10,450
Anti-tetanus toxoid IgG2a titer [2]: 5900
Anti-tetanus toxoid IgG2b Titer [2]: 26,800
Anti-tetanus toxoid IgG2b titer [2]: 8400
Anti-tetanus toxoid IgM T/C [2]: 4.75 and 3.3
Anti-tetanus toxoid IgM Titer [2]: 7,600
Anti-tetanus toxoid IgM titer [2]: 5120
Anti-tetanus toxoid Total IgG T/C [2]: 3.6
Anti-tetanus toxoid Total IgG Titer [2]: 23,200
Anti-ovalbumin IgG1 T/C [3]: 1.6
Anti-ovalbumin IgG1 Titer [3]: 2650
Anti-ovalbumin IgG2a T/C [3]: 1.7
Anti-ovalbumin IgG2a Titer [3]: 550
Anti-ovalbumin IgG2b T/C [3]: 1.6
Anti-ovalbumin IgG2b Titer [3]: 375
Anti-ovalbumin IgM T/C [3]: 1.3
Anti-ovalbumin IgM Titer [3]: 250
Anti-ovalbumin Total Ig T/C [3]: 0.7
Anti-ovalbumin Total Ig Titer [3]: 150
PY[…] ([9]; rabbits): 0.3 to 0.6 µg/kg
TNF-α ([5]; Dosage 100 ng/ml, Table 17): 127 pg/mL
TNF-α ([5]; Dosage 500 ng/ml, Table 17): 125 pg/mL
TNF-α ([5]; Dosage 1000 ng/ml, Table 17): 115 pg/mL
TNF-α ([5]; Dosage 5000 ng/ml, Table 17): 139 pg/mL
TNF-α ([5]; Dosage 10,000 ng/ml, Table 17): 181 pg/mL
% Cytotoxicity ([6]; E:T 12.5:1): 5%
% Cytotoxicity ([6]; E:T 25:1): 8%
% Cytotoxicity ([6]; E:T 50:1): 14%
IL-1β ([8]; Dosage 100 ng/ml, Table 17): 59.8 pg/mL
IL-1β ([8]; Dosage 500 ng/ml, Table 17): 55.8 pg/mL
IL-1β ([8]; Dosage 1000 ng/ml, Table 17): 54.5 pg/mL
IL-1β ([8]; Dosage 5000 ng/ml, Table 17): 61.7 pg/mL
IL-1β ([8]; Dosage 10,000 ng/ml, Table 17): 62.3 pg/mL
